# US7435733B2, “Mineralocorticoid receptor modulator compounds and methods, and pharmaceutical compositions containing these compounds” (Ligand Pharmaceuticals, Inc., priority 2004, dated 2008)
# Molecular target: T1, human mineralocorticoid receptor protein (MR) (Homo sapiens, UniProt P08235)
# T1 construct: made in house; host or cells: Spodoptera frugiperda Sf21 insect cells (baculovirus)
# T1 sequence (P08235 1-984): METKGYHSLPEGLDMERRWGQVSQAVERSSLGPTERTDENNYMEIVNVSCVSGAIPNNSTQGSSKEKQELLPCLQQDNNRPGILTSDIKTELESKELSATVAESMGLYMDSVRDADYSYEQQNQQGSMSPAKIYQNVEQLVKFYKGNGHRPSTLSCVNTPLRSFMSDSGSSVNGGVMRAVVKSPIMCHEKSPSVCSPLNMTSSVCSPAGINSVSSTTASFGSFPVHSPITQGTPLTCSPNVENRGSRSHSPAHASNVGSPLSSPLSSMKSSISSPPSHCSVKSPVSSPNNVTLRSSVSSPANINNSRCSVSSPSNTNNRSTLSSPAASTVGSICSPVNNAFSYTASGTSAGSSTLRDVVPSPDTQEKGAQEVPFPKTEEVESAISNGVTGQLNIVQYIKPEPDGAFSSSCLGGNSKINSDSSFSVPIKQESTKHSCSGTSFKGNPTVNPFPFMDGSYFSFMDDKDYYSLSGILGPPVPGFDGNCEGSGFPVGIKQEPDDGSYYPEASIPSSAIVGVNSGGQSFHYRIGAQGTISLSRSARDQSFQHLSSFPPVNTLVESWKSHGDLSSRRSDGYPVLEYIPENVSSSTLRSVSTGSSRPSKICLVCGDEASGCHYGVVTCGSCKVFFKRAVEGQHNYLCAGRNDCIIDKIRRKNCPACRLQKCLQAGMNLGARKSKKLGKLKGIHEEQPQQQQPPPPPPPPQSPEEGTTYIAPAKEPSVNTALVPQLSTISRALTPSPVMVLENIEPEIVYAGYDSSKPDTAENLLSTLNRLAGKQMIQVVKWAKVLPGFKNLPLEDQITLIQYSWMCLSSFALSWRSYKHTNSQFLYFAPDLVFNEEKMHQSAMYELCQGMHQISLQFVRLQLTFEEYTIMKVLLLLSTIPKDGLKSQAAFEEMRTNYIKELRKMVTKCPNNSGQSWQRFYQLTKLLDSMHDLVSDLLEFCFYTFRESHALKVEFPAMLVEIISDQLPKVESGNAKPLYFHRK
# Experiment: Mineralocorticoid receptor binding assay ([3H]aldosterone displacement, MR lysate)
# Details: baculovirus-expressed MR lysate from Sf21 cells; 2-4 nM [3H]aldosterone; 16 hours at 4° C.; Cheng-Prusoff from IC50
# Protocol: A baculovirus expression plasmid comprising cDNA encoding the human mineralocorticoid receptor protein (MR) was prepared using standard techniques. See e.g. E. A. Allegretto et. al. 268 J. Biol. Chem., 26625 (1993); G. Srinivasan and B. Thompson, 4 Mol. Endo., 209 (1990); and D. R. O'Reilly et. al., in “Baculovirus Expression Vectors”, D. R. O'Reilly et. al., eds., W.H. Freeman, New York, N.Y., pp. 139-179 (1992). That expression plasmid was co-transfected together with wild type Autographa californica multiple nuclear polyhedrosis virus DNA into Spodopter frugiperda-21 (Sf-21) cells to generate recombinant virus comprising MR cDNA. See e.g. O'Reilly, D. R., Miller, L. K., Luckow, V. A., Regulation of expression of a baculovirus ecdysteroid UDP glucosyltransferase gene. “Baculovirus Expression Vectors.” WH Freeman, N.Y., 139-179 (1992). […]
# After incubation, 200 μl of 6.25% hydroxylapatite in assay buffer was added to each assay sample to precipitate the protein. […] Radioactivity in counts per minute (CPM) of each washed pellet was determined by liquid scintillation counter (MicroBeta™, Wallach).
# Specific binding for a particular sample was calculated using the equation: (Sample CPM)−(Average Non-specific CPM) Average Non-specific CPM was defined as the amount of radioactivity from samples comprising an excess (i.e. 1000 nM) of unlabeled aldosterone. […]
row,Ki,Compound
1,0.335 µM,"O=C1Nc2ccc(-c3cccc(C(F)(F)F)c3)c3c2C(CCC3)O1 (racemic) [Compound 101, (±)-7,8,9,9a-Tetrahydro-6-[(3-trifluoromethyl)phenyl]-3H-naphtho[1,8-de][1,3]oxazin-2-one]"
2,0.65 µM,"N#Cc1cccc(-c2ccc3c4c2CCCC4OC(=O)N3)c1 (racemic) [Compound 102, (±)-7,8,9,9a-Tetrahydro-6-(3-cyanophenyl)-3H-naphtho[1,8-de][1,3]oxazin-2-one]"
